Molecular target: Stromelysin (Homo sapiens, UniProt P08254)
Assay: MMP inhibition, particle concentration fluorescence assay
Assay type: biochemical
Conditions: in vitro; fluorescein/biotin substrate; MMP buffer pH 7.5; room temperature
Description: Inhibitory activity is evaluated in one or more of the MMP enzymes (stromelysin, gelatinase, and collagenase) in vitro using particle concentration fluorescence assay. An inhibitor binds to MMP enzymes which prevents the degradation of a substrate by stromelysin, gelatinase, or collagenase. The substrate has attached to it a fluorescein and a biotin moiety. The intact substrate then binds to an avidin-coated particle via the biotin moiety. Once the particle is washed and dried, a fluorescent signal is generated since the fluorescent group is attached to the particle. Without an inhibitor present, the substrate is degraded by MMP enzymes and the fluorescein group is removed, therefore, no fluorescent signal can be detected. Testing compounds are dissolved in DMSO to the desired concentration, then the solutions are diluted to 1:5 with MMP buffer (50 mM Tris-HCl, pH 7.5; 150 mM NaCl; 0.02% NaN3). Serial two-fold dilutions of each compound are prepared. A concentrated, activated enzyme solution is transferred into each plate of the testing compounds, and the mixture is incubated at room temperature for 15 minutes. […] At this point, the substrate mixture is mixed with 0.1% avidin-coated polystyrene particles. After 15 minutes, the fluorescence values are measured following filtration and washing of the beads. Ki values are then calculated.

Chain of Stromelysin (P08254 100-477): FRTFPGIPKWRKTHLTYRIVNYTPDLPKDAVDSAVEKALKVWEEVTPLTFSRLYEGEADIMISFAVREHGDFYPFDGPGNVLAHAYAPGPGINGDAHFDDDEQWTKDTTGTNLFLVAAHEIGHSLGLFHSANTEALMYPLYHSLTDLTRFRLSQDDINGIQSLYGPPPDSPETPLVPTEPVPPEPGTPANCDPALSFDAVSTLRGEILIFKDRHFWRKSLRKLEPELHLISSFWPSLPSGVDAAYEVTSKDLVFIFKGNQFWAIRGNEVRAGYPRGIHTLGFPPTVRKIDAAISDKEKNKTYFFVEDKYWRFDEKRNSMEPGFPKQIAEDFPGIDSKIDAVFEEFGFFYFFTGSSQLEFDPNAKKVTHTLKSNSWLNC

Row | Compound | Ki [nM]
1 | O=C(Nc1n[nH]c(=S)s1)N[C@@H](Cc1ccccc1)C(=O)NCc1cccc2ccccc12 [Example 58, α-[[[(4,5-Dihydro-5-thioxo-1,3,4-thiadiazol-2-yl)amino]carbonyl]amino)-N-(1-naphthylmethyl)-(S)-benzenepropanamide] | 800
2 | COC(=O)[C@H](Cc1ccc(C(C)(C)C)cc1)NC(=O)Nc1n[nH]c(=S)s1 [Example 80, N-[[(4,5-Dihydro-5-thioxo-1,3,4-thiadiazol-2-yl)amino]carbonyl]-4-(1,1-dimethylethyl)-L-phenylalanine methyl ester] | 800
3 | O=C(Nc1n[nH]c(=S)s1)N[C@@H](Cc1ccccc1)C(=O)NCCCCc1ccccc1 [Example 37, aα-[[[(4,5-Dihydro-5-thioxo-1,3,4-thiadiazol-2-yl)amino]carbonyl]amino]-N-(4-phenylbutyl)-(S)-benzenepropanamide] | 820
4 | CNC(=O)C(Cc1ccc(Br)cc1)NC(=O)Nc1n[nH]c(=S)s1 (stereo not drawn) [Example 20, α-[[[(4,5-Dihydro-5-thioxo-1,3,4-thiadiazol-2-yl)amino]carbonyl]-amino]-N-methyl-4-bromobenzene-propanamide] | 800
5 | O=C(Nc1n[nH]c(=S)s1)N[C@@H](Cc1ccccc1)C(=O)NCc1nc2ccccc2[nH]1 [Example 57, N-(1H-Benzimidazol-2-ylmethyl)-α-[[[(4,5-dihydro-5-thioxo-1,3,4-thiadiazol-2-yl)amino]carbonyl]amino]-(S)-benzenepropanamide] | 640
6 | CC(C)C[C@H](NC(=O)Nc1n[nH]c(=S)s1)C(=O)NCCc1ccccc1 [Example 28, 2-[[[(4,5-Dihydro-5-thioxo-1,3,4-thiadiazol-2-yl)amino]-carbonyl]amino]-4-methyl-N-(2-phenylethyl)-(S)-pentanamide] | 3490
7 | CC(C)(C)c1ccc(CNC(=O)[C@H](Cc2ccccc2)NC(=O)Nc2n[nH]c(=S)s2)cc1 [Example 54, α-[[[(4,5-Dihydro-5-thioxo-1,3,4-thiadiazol-2-yl)amino]-carbonyl]amino]-N-[[4-(1,1-dimethylethyl)phenyl]methyl]-(S)-benzenepropanamide] | 1740
8 | COC(=O)[C@H](CO[Si](C)(C)C(C)(C)C)NC(=O)Nc1n[nH]c(=S)s1 [Example 45, N-[[(4,5-Dihydro-5-thioxo-1,3,4-thiadiazol-2-yl)amino]carbonyl]-O-[(1,1-dimethylethyl)dimethylsilyl]-L-serine methyl ester] | 1530
9 | CNC(=O)[C@H](Cc1ccc(-c2ccccc2)cc1)NC(=O)Nc1n[nH]c(=S)s1 [Example 79, α-[[[(4,5-Dihydro-5-thioxo-1,3,4-thiadiazol-2-yl)amino]carbonyl]amino]-N-methyl-(S)-(1,1'-biphenyl)-4-propanamide] | 7390
10 | O=C(Nc1n[nH]c(=S)s1)N[C@@H](Cc1ccccc1)C(=O)NCc1ccc2c(c1)OCO2 [Example 49, α-[[[(4,5-Dihydro-5-thioxo-1,3,4-thiadiazol-2-yl)amino]-carbonyl]amino]-N-(piperonyl)-(S)-benzenepropanamide] | 1000
11 | COC(=O)[C@H](COCc1ccccc1)NC(=O)Nc1n[nH]c(=S)s1 [Example 63, N-[[(4,5-Dihydro-5-thioxo-1,3,4-thiadiazol-2-yl)amino]carbonyl]-O-(phenylmethyl)-L-serine methyl ester] | 2390
12 | COC(=O)[C@@H](NC(=O)Nc1n[nH]c(=S)s1)c1ccccc1 [Example 24, (S)-N-[[(4,5-Dihydro-5-thioxo-1,3,4-thiadiazol-2-yl)amino]carbonyl]-2-phenylglycine methyl ester] | 7660

— patent publication EP0900211B1 (PHARMACIA & UPJOHN COMPANY, priority 1996, dated 1997)
